In ChEMBL document CHEMBL1201862, “PubChem BioAssay data set” (2004):
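Cells were grown in 96-well plates and exposed to each compound for 48 hours at five concentrations; endpoints were interpolated linearly between bracketing concentrations, or set to the highest concentration if not reached. The concentration for 50% growth inhibition is given as GI50.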 Activity calls are given as the source filed them. Rule as the data show it: active = GI50 up to about 1.1 µM and inactive = higher.

Experiments:
Assay in all cases: growth of human tumour cells (NCI), 48 h
[1] = test system: OVCAR-3
[2] = test system: NCI-H460
[3] = test system: M14
[4] = test system: HCT-116
[5] = test system: CCRF-CEM
[6] = test system: COLO 205
[7] = test system: SK-MEL-5
[8] = test system: SK-MEL-2
[9] = test system: SW-620
[10] = test system: MOLT-4
[11] = test system: NCI-H522
[12] = test system: SF-539
[13] = test system: KM12
[14] = test system: DMS-273
[15] = test system: 786-0
[16] = test system: OVCAR-8
[17] = test system: U-251
[18] = test system: K562
[19] = test system: NCI-H23
[20] = test system: HL-60
[21] = test system: HOP-62
[22] = test system: EKVX
[23] = test system: IGROV-1
[24] = test system: HCT-15
[25] = test system: UO-31
[26] = test system: UACC-62
[27] = test system: HCC 2998
[28] = test system: TK-10
[29] = test system: SN12C
[30] = test system: RXF 393
[31] = test system: ACHN
[32] = test system: SK-MEL-28
[33] = test system: SNB-78
[34] = test system: HT-29
[35] = test system: OVCAR-4
[36] = test system: LOX IMVI
[37] = test system: SF-295
[38] = test system: LXFL 529
[39] = test system: NCI-H226
[40] = test system: SK-OV-3
[41] = test system: SNB-19
[42] = test system: XF498
[43] = test system: SR
[44] = test system: SNB-75
[45] = test system: Malme-3M
[46] = test system: DLD-1
[47] = test system: KM-20L2
[48] = test system: A549
[49] = test system: M19-MEL
[50] = test system: SF-268
[51] = test system: UACC-257

CCC(C)(C)n1c(C)nc2c1C(=O)c1ccccc1C2=O
GI50 [1]: 30.7 µM (inactive) | GI50 [2]: 12.2 µM (inactive) | GI50 [3]: 42.5 µM (inactive) | GI50 [4]: 13.6 µM (inactive) | GI50 [5]: 29.7 µM (inactive) | GI50 [6]: 17 µM (inactive) | GI50 [7]: 15.7 µM (inactive) | GI50 [8]: 18.7 µM (inactive) | GI50 [9]: 44.7 µM (inactive) | GI50 [10]: 18.8 µM (inactive) | GI50 [11]: 28.4 µM (inactive) | GI50 [12]: 26.5 µM (inactive) | GI50 [13]: 23.8 µM (inactive) | GI50 [14]: 11.8 µM (inactive) | GI50 [15]: 39.5 µM (inactive) | GI50 [16]: 36.1 µM (inactive) | GI50 [17]: 28.8 µM (inactive) | GI50 [18]: 13.6 µM (inactive) | GI50 [19]: 27.7 µM (inactive) | GI50 [20]: 7.62 µM (inactive) | GI50 [21]: 30.5 µM (inactive) | GI50 [22]: 34.1 µM (inactive) | GI50 [23]: 34 µM (inactive) | GI50 [24]: 23.1 µM | GI50 [25]: 25.7 µM (inactive) | GI50 [26]: 13.5 µM (inactive) | GI50 [27]: 45.8 µM (inactive) | GI50 [28]: 31.8 µM (inactive) | GI50 [29]: 31.5 µM (inactive) | GI50 [30]: 21.1 µM (inactive) | GI50 [31]: 32.9 µM (inactive) | GI50 [32]: 46.8 µM (inactive) | GI50 [33]: 46.5 µM (inactive) | GI50 [34]: 31.6 µM (inactive) | GI50 [35]: 37.3 µM (inactive) | GI50 [36]: 19.4 µM (inactive) | GI50 [37]: 38.9 µM (inactive) | GI50 [38]: 13.9 µM (inactive) | GI50 [39]: 40.6 µM (inactive) | GI50 [40]: 44.9 µM (inactive) | GI50 [41]: 53.3 µM (inactive) | GI50 [42]: 16.8 µM (inactive) | GI50 [43]: 9.33 µM (inactive) | GI50 [44]: 27.2 µM (inactive) | GI50 [45]: 32.2 µM (inactive) | GI50 [46]: 15.6 µM (inactive) | GI50 [47]: 38.6 µM (inactive) | GI50 [48]: 36.5 µM (inactive) | GI50 [49]: 15.7 µM (inactive) | GI50 [50]: 29.6 µM (inactive) | GI50 [51]: 33.5 µM (inactive)
